This note sets out measurements from ChEMBL document CHEMBL1139942, “Geldanamycin derivatives and neuroprotective effect on cultured P19-derived neurons” (Bioorg Med Chem Lett, 2007).

The nature of series [1]: Cell viability of mouse P19 derived neurons at 1 nM by XTT reduction assay relative to control. It is filed as functional. In general terms: Tetrazolium dyes change colour on reduction, which living cells bring about.
Series [2] in a line: Neurotoxicity against mouse P19 derived neurons after 18 hrs. Type of series: toxicity.
The subject of the next series is P19. Nature of the series: Cytotoxicity against mouse P19 cells after 18 hrs. The conditions noted are these: P19, 18 h. It is filed as functional, cell-based.
The nature of series [3]: Neuroprotective activity against paclitaxel-induced toxicity in mouse P19 derived neurons assessed as cell viability at 1 nM. It is filed as functional. The conditions noted are these: read-out: Activity.
The nature of series [4]: Therapeutic index, ratio of neurotoxic IC50 to neuroprotective activity for mouse P19 derived neurons.
The species named for series [5] is Mus musculus. Nature of the series: Neuroprotective activity against vinblastine-induced toxicity in mouse P19 derived neurons assessed as cell viability at 1 nM after 18 hrs by phase contrast microscope. Type of series: functional.
The species named for series [6] is Mus musculus. Nature of the series: Neuroprotective activity against paclitaxel-induced toxicity in mouse P19 derived neurons assessed as cell viability at 1 nM after 18 hrs by phase contrast microscope. Type of series: functional.

Activity calls are given as the source filed them. The rule behind the calls is not given here. Some results are limits rather than exact numbers.

`CNC1=C2C[C@@H](C)C[C@H](OC)[C@H](O)[C@@H](C)/C=C(\C)[C@H](OC(N)=O)[C@@H](OC)/C=C\C=C(/C)C(=O)NC(=C(NC)C1=O)C2=O` registered an Activity in series [1] of 46%.
Still for that read-out and setting: the value for `CCNC1=C2C[C@@H](C)C[C@H](OC)[C@H](O)[C@@H](C)/C=C(\C)[C@H](OC(N)=O)[C@@H](OC)/C=C\C=C(/C)C(=O)NC(=CC1=O)C2=O` was 49%.
Same read-out and setting: for `COC1=C2C[C@@H](C)C[C@H](OC)[C@H](O)[C@@H](C)/C=C(\C)[C@H](OC(N)=O)[C@@H](OC)/C=C\C=C(/C)C(=O)NC(=C(N)C1=O)C2=O` the value was 91%; for `CCCNC1=C2C[C@@H](C)C[C@H](OC)[C@H](O)[C@@H](C)/C=C(\C)[C@H](OC(N)=O)[C@@H](OC)/C=C\C=C(/C)C(=O)NC(=C(NCCC)C1=O)C2=O`, 0%; for `CO[C@H]1/C=C\C=C(/C)C(=O)NC2=CC(=O)C(NCc3ccccc3)=C(C[C@@H](C)C[C@H](OC)[C@H](O)[C@@H](C)/C=C(\C)[C@@H]1OC(N)=O)C2=O`, 44%.
The same measure, in the same setting: the value for `CCCNC1=C2C[C@@H](C)C[C@H](OC)[C@H](O)[C@@H](C)/C=C(\C)[C@H](OC(N)=O)[C@@H](OC)/C=C\C=C(/C)C(=O)NC(=CC1=O)C2=O` was 0%; that for `C=CCNC1=C2C[C@@H](C)C[C@H](OC)[C@H](O)[C@@H](C)/C=C(\C)[C@H](OC(N)=O)[C@@H](OC)/C=C\C=C(/C)C(=O)NC(=CC1=O)C2=O` was 66%.
In turn, `CO[C@H]1/C=C\C=C(/C)C(=O)NC2=CC(=O)C(O)=C(C[C@@H](C)C[C@H](OC)[C@H](O)[C@@H](C)/C=C(\C)[C@@H]1OC(N)=O)C2=O` displayed an Activity in series [1] of 50%.
Broadly, the IC50 is the concentration at which inhibition is half-maximal. Read a high IC50 as weaker potency. Turning to `CCCOC1=C2C[C@@H](C)C[C@H](OC)[C@H](O)[C@@H](C)/C=C(\C)[C@H](OC(N)=O)[C@@H](OC)/C=C\C=C(/C)C(=O)NC(=CC1=O)C2=O`, in series [1], the Activity was 121%. For the same molecule, in series [2], inhibition was half-maximal at 6.7 µM (IC50 at 18 h). Moreover, 0.2 µM corresponded to half-maximal inhibition in the series with P19 (IC50). In addition, the viability at 0.001 µM in series [3] is 100%.
For the molecule `COC1=C2C[C@@H](C)C[C@H](OC)[C@H](O)[C@@H](C)/C=C(\C)[C@H](OC(N)=O)[C@@H](OC)/C=C\C=C(/C)C(=O)NC(=CC1=O)C2=O` [GELDANAMYCIN], in series [1], the Activity stood at 121%. This molecule displayed an IC50 at 18 h in series [2] of 1.8 µM. In addition, in the series on P19, the concentration for half-maximal inhibition (IC50) came to 0.1 µM. Further, in series [3], the viability at 0.001 µM was 100%. Besides, in series [4], the selectivity ratio is greater than 1800.
Regarding `CO[C@H]1/C=C\C=C(/C)C(=O)NC2=CC(=O)C(N)=C(C[C@@H](C)C[C@H](OC)[C@H](O)[C@@H](C)/C=C(\C)[C@@H]1OC(N)=O)C2=O`, in series [1], the Activity was 85%.
The molecule `CCOC1=C2C[C@@H](C)C[C@H](OC)[C@H](O)[C@@H](C)/C=C(\C)[C@H](OC(N)=O)[C@@H](OC)/C=C\C=C(/C)C(=O)NC(=C(OCC)C1=O)C2=O` yielded an Activity in series [1] of 0%.
In the case of `CO[C@H]1/C=C\C=C(/C)C(=O)NC2=C(NCCCO)C(=O)C(NCCCO)=C(C[C@@H](C)C[C@H](OC)[C@H](O)[C@@H](C)/C=C(\C)[C@@H]1OC(N)=O)C2=O`, the Activity in series [1] worked out at 0%.
For `CO[C@H]1/C=C\C=C(/C)C(=O)NC2=CC(=O)C(OCc3ccccc3)=C(C[C@@H](C)C[C@H](OC)[C@H](O)[C@@H](C)/C=C(\C)[C@@H]1OC(N)=O)C2=O`, the Activity in series [1] amounted to 111%. The molecule further showed an IC50 at 18 h in series [2] greater than 10 µM. In the series on P19, this molecule gave an IC50 of 0.5 µM. Moreover, the viability at 0.001 µM in series [3] stood at 100%.
The like results for `CCOC1=C2C[C@@H](C)C[C@H](OC)[C@H](O)[C@@H](C)/C=C(\C)[C@H](OC(N)=O)[C@@H](OC)/C=C\C=C(/C)C(=O)NC(=CC1=O)C2=O` were, in that order, 113%, 1.6 µM, 0.1 µM and 100%.
In turn, `COC1=C2C[C@@H](C)C[C@H](OC)[C@H](O)[C@@H](C)/C=C(\C)[C@H](OC(N)=O)[C@@H](OC)/C=C\C=C(/C)C(=O)NC(=C(OC)C1=O)C2=O` registered an Activity in series [1] of 108%. The result in the series filed under Mus musculus [5] and in the series filed under Mus musculus [6] was Active. This molecule also came in with a half-inhibitory concentration (IC50) at 18 h in series [2] greater than 10 µM. In the series on P19, this molecule yielded a concentration for half-maximal inhibition (IC50) greater than 10 µM. Moreover, in series [3], the viability at 0.001 µM is 120%. Besides, in series [4], the selectivity ratio was greater than 10000.
As to `CO[C@H]1/C=C\C=C(/C)C(=O)Nc2cc(O)c(O)c(c2O)C[C@@H](C)C[C@H](OC)[C@H](O)[C@@H](C)/C=C(\C)[C@@H]1OC(N)=O`, in series [1], the Activity turned out to be 43%.
